These results are taken from patent publication US12655174B2, “Adenosine A3 receptor agonists, preparation methods and uses thereof” (ZHEJIANG VIMGREEN PHARMACEUTICALS, LTD., priority 2020, dated 2026).

Where “and” joins values, the source holds several entries; their conditions need not be identical. Identical values can stand only once. A value given as a limit tells only on which side of the number the result lay.

The target of data set [1] is T1, ADORA3 receptor (CHO cells stably expressing ADORA3 receptor) (Homo sapiens, UniProt P0DMS8).
T1 construct: expressed in transfected cells
T1 sequence (P0DMS8 1-318): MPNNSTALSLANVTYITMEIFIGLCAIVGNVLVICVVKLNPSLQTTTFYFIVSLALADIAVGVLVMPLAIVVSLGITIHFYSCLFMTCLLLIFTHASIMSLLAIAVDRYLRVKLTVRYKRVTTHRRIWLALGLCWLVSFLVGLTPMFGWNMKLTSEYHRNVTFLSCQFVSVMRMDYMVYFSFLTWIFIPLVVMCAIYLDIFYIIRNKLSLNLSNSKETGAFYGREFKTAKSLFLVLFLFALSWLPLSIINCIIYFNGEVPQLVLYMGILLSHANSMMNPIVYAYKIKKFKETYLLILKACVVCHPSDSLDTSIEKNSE
The data set can be described thus: Effect of compound on intracellular cAMP level by adenosine A3 receptor agonism. Type of data set: cell-based. The settings on record: forskolin-stimulated. As for the experimental part: Example 26: Test the Effect of Compound on Intracellular cAMP Level by Adenosine A3 Receptor Agonism
• 1) 1×HBSS with Ca2+ and Mg2+ (14 mL), 1 M HEPES (75 μL), a 7.5% (w/v) BSA stabilizer (pH 7.4, 200 μL), and 20 mM rolipram (7.5 μL) were respectively prepared as cAMP assay buffer. • 2) Preparation of compound source plate • a. […] A 10 mM stock solution was subjected to a 3-fold serial dilution by 100% (v/v) DMSO to prepare 10 doses of the test substance. • c. 1 mM of Forskolin was prepared by 100% (v/v) DMSO. • 3) Preparation of test plate • a. Prior to the assay, CHO cells stably expressing ADORA3 receptor were harvested and the cells were counted by using a Countess cell counter. […] The cells were seeded at a density of 2,000 cells/well in a 384-well plate. • 4) 10 nL/well of the serially diluted compound and 10 nL/well of 1 mM of forskolin were transferred to each well with ADORA3 receptor expressing cells by using Echo550. • 5) A cell plate was centrifuged at 1,000 rpm for 1 minute and then stirred at 600 rpm for 2 minutes. The plate was incubated at 37° C. • 6) An Eu-cAMP tracer working solution and an Ulight-anti-cAMP working solution were prepared according to the following table.
• 7) 5 μl/well of the Eu-cAMP tracer working solution and 5 μl/well of the Ulight-anti-cAMP working solution were added to each well of the plate. […] 2. Data Analysis • 1) An activation percentage was calculated by using the following formula:
[formula] • % Activation: activation percentage • Ratiocpd: ratio of emissivity of test compound • RatioLow control: ratio of low emissivity • RatioHigh control: ratio of high emissivity • 2) EC50 was calculated by an XLfit using the Hill equation to fit the activity percentage and a log of a compound concentration. 3. Test Result
A general note: Changes in cAMP serve as a functional read-out for many G protein-coupled receptors.

A short description of data set [2]: Pharmacokinetic test of compound in SD rat. Type of data set: in vivo. The settings on record: SD rats, intragastric administration (IG), cassette dosing. As for the experimental part: Example 28: Pharmacokinetic Test of Compound in SD Rat
The animal species used in this experiment were SD rats. There were 3 animals per group. The rats were dosed in cassette format, i.e., multiple (1-6) different compounds were dosed simultaneously to the same group of the SD rats. The vehicle used for the drug was 5% DMSO+5% Solutl+90% ([…] methylcellulose M450), and the administration route was intragastric administration (IG).

Take `CCOc1cncc(-c2nc(NCc3cccc(C)c3)c3ncn(C4O[C@H](C(=O)NC)[C@@H](O)[C@H]4O)c3n2)c1` (stereo in doubt) [compound 301, (2S,3S,4R,5S)-5-(2-(5-ethoxypyridin-3-yl)-6-((3-methylbenzyl)amino)-9H-purin-9-yl)-3,4-dihydroxyl-N-methyltetrahydrofuran-2-carboxamide]: the EC50 (in general, the concentration at which the effect is half-maximal) in data set [1] amounted to 3.78 nM. Besides, the “AUC_D” value in data set [2] stood at 744.06 kg·ng·h/mL/mg.

In turn, `CNC(=O)[C@H]1OC(n2cnc3c(NCc4ccccn4)nc(-c4cncc(OC)c4)nc32)[C@H](O)[C@@H]1O` (stereo in doubt) [compound 307, (2S,3S,4R,5S)-3,4-dihydroxyl-5-(2-(5-methoxypyridin-3-yl)-6-((pyridin-2-ylmethyl)amino)-9H-purin-9-yl)-N-methyltetrahydrofuran-2-carboxamide] had an EC50 in data set [1] of 9.4 nM. Also, the “AUC_D” value in data set [2] came out at 173.85 kg·ng·h/mL/mg.

In data set [1], `[2H]C([2H])([2H])NC(=O)[C@H]1O[C@@H](n2cnc3c(NCc4ccccc4)nc(-c4ccsc4)nc32)[C@H](O)[C@@H]1O` [compound 24, (2S,3S,4R,5R)-5-(6-(benzylamino)-2-(thiophen-3-yl)-9H-purin-9-yl)-3,4-dihydroxyl-N-(methyl-d3)-tetrahydrofuran-2-formamide] returned a concentration for a half-maximal effect (EC50) of 5.77 nM. In addition, the “AUC_D” value in data set [2] came to 86.00 kg·ng·h/mL/mg.

`[2H]C([2H])([2H])NC(=O)[C@H]1O[C@@H](n2cnc3c(NC([2H])([2H])[2H])nc(-c4ccsc4)nc32)[C@H](O)[C@@H]1O` [compound 92, (2S,3S,4R,5R)-3,4-dihydroxyl-N-(methyl-d3)-5-(6-(methyl-d3-amino)-2-(thiophen-3-yl)-9H-purin-9-yl)tetrahydrofuran-2-carboxamide]: the EC50 in data set [1] is below 0.51 nM. Also, the “AUC_D” value in data set [2] was 83.00 kg·ng·h/mL/mg.

In turn, `CNC(=O)[C@H]1O[C@@H](n2cnc3c(NCc4cccc(C)c4)nc(-c4cccnc4)nc32)[C@H](O)[C@@H]1O` [compound 108, (2S,3S,4R,5R)-3,4-dihydroxyl-N-methyl-5-(6-((3-methylbenzyl)amino)-2-(pyridin-3-yl)-9H-purin-9-yl)tetrahydrofuran-2-carboxamide] displayed an EC50 in data set [1] of 1.58 nM. For the same compound, the “AUC_D” value in data set [2] amounted to 801.47 kg·ng·h/mL/mg.

For the compound `CNC(=O)[C@H]1O[C@@H](n2cnc3c(NCc4cccc(C)n4)nc(-c4cncc(OC)c4)nc32)[C@H](O)[C@@H]1O` [compound 111, (2S,3S,4R,5R)-3,4-dihydroxyl-5-(2-(5-methoxypyridin-3-yl)-6-((((6-methylpyridin-2-yl))methyl)amino)-9H-purin-9-yl)-N-methyltetrahydrofuran-2-carboxamide], in data set [1], the EC50 was determined as 7.32 nM. Moreover, the “AUC_D” value in data set [2] stood at 230.72 kg·ng·h/mL/mg.

`CNC(=O)[C@H]1O[C@@H](n2cnc3c(NCc4cccc(C)c4)nc(-c4cncc(Cl)c4)nc32)[C@H](O)[C@@H]1O` [compound 160, (2S,3S,4R,5R)-5-(2-(5-chloropyridin-3-yl)-6-((3-methylbenzyl)amino)-9H-purin-9-yl)-3,4-dihydroxyl-N-methyltetrahydrofuran-2-carboxamide] gave an EC50 in data set [1] of 3.53 nM. Moreover, in data set [2], the “AUC_D” value was 1900.75 kg·ng·h/mL/mg and 1515.94 kg·ng·h/mL/mg.

`CNC(=O)[C@H]1O[C@@H](n2cnc3c(NCc4cccc(C)c4)nc(-c4cncc(F)c4)nc32)[C@H](O)[C@@H]1O` [compound 161, (2S,3S,4R,5R)-5-(2-(5-fluoropyridin-3-yl)-6-((3-methylbenzyl)amino)-9H-purin-9-yl)-3,4-dihydroxyl-N-methyltetrahydrofuran-2-carboxamide]: the EC50 in data set [1] was determined as 0.74 nM. In addition, in data set [2], the “AUC_D” value was determined as 994.72 kg·ng·h/mL/mg.

Compound `CNC(=O)[C@H]1O[C@@H](n2cnc3c(NCc4cccc(C(F)(F)F)c4)nc(-c4cncc(Cl)c4)nc32)[C@H](O)[C@@H]1O` [compound 179, (2S,3S,4R,5R)-5-(6-(3-(trifluoromethyl)benzylamino)-2-(5-chloropyridin-3-yl)-9H-purin-9-yl)-3,4-dihydroxyl-N-methyl-tetrahydrofuran-2-formamide] came in with an EC50 in data set [1] of 9.44 nM. Also, in data set [2], the “AUC_D” value amounted to 273.37 kg·ng·h/mL/mg.

`CNC(=O)[C@H]1O[C@@H](n2cnc3c(NCc4cc(Cl)ccn4)nc(-c4cccnc4)nc32)[C@H](O)[C@@H]1O` [compound 182, (2S,3S,4R,5R)-5-(6-((4-chloropyridin-2-yl)methylamino)-2-(pyridin-3-yl)-9H-purin-9-yl)-3,4-dihydroxyl-N-methyl-tetrahydrofuran-2-formamide]: the EC50 in data set [1] is below 0.51 nM. Further, the “AUC_D” value in data set [2] is 235.62 kg·ng·h/mL/mg.

The compound `CNC(=O)[C@H]1O[C@@H](n2cnc3c(NCc4cc(Cl)ccn4)nc(-c4cncc(OC)c4)nc32)[C@H](O)[C@@H]1O` [compound 185, (2S,3S,4R,5R)-5-(6-((4-chloropyridin-2-yl)methylamino)-2-(5-methoxypyridin-3-yl)-9H-purin-9-yl)-3,4-dihydroxyl-N-methyl-tetrahydrofuran-2-formamide] displayed an EC50 in data set [1] below 0.51 nM. Also, the “AUC_D” value in data set [2] is 589.63 kg·ng·h/mL/mg.

In the case of `CNC(=O)[C@H]1O[C@@H](n2cnc3c(NCc4ccccc4)nc(-c4cncc(OC)c4)nc32)[C@H](O)[C@@H]1O` [compound 187, (2S,3S,4R,5R)-5-(6-(benzylamino)-2-(5-methoxypyridin-3-yl)-9H-purin-9-yl)-3,4-dihydroxyl-N-methyl-tetrahydrofuran-2-formamide], the EC50 in data set [1] came to 14.5 nM. For the same compound, in data set [2], the “AUC_D” value worked out at 1269.78 kg·ng·h/mL/mg.

In data set [1], `CNC(=O)[C@H]1O[C@@H](n2cnc3c(NCc4cccc(Cl)n4)nc(-c4cncc(OC)c4)nc32)[C@H](O)[C@@H]1O` [compound 230, (2S,3S,4R,5R)-5-(6-(((6-chloropyridin-2-yl)methyl)amino)-2-(5-methoxypyridin-3-ly)-9H-purin-9-yl)-3,4-dihydroxyl-N-methyltetrahydrofuran-2-carboxamide] displayed an EC50 of 8.68 nM. Further, the “AUC_D” value in data set [2] came to 212.91 kg·ng·h/mL/mg.

In turn, `[2H]C([2H])([2H])NC(=O)[C@H]1O[C@@H](n2cnc3c(NCc4cc(Cl)ccc4F)nc(-c4cncc(Cl)c4)nc32)[C@H](O)[C@@H]1O` [compound 245, (2S,3S,4R,5R)-5-(6-(5-chloro-2-fluorobenzylamino)-2-(5-chloropyridin-3-yl)-9H-purin-9-yl)-3,4-dihydroxyl-N-((methyl-d3))-tetrahydrofuran-2-carboxamide] came in with an EC50 in data set [1] of 0.28 nM. Also, the “AUC_D” value in data set [2] is 1182.41 kg·ng·h/mL/mg.

The compound `[2H]C([2H])([2H])NC(=O)[C@H]1O[C@@H](n2cnc3c(NCc4cccs4)nc(-c4cncc(Cl)c4)nc32)[C@H](O)[C@@H]1O` [compound 254, (2S,3S,4R,5R)-5-(2-(5-chloropyridin-3-yl)-6-((thiophen-2-ylmethyl)amino)-9H-purin-9-yl)-3,4-dihydroxyl-N-(methyl-d3)tetrahydrofuran-2-carboxamide] yielded an EC50 in data set [1] of 9.51 nM. In addition, the “AUC_D” value in data set [2] was found to be 703.00 kg·ng·h/mL/mg.

In the case of `[2H]C([2H])([2H])NC(=O)[C@H]1O[C@@H](n2cnc3c(NCc4ccsc4)nc(-c4cncc(Cl)c4)nc32)[C@H](O)[C@@H]1O` [compound 255, (2S,3S,4R,5R)-5-(2-(5-chloropyridin-3-yl)-6-((thiophen-3-ylmethyl)amino)-9H-purin-9-yl)-3,4-dihydroxyl-N-(methyl-d3)tetrahydrofuran-2-carboxamide], it took 8.58 nM to reach a half-maximal effect in data set [1] (EC50). Besides, the “AUC_D” value in data set [2] worked out at 406.00 kg·ng·h/mL/mg.

As to `[2H]C([2H])([2H])NC(=O)[C@H]1O[C@@H](n2cnc3c(NCc4cccc(C)c4)nc(-c4cncc(CC)c4)nc32)[C@H](O)[C@@H]1O` [compound 282, (2S,3S,4R,5R)-5-(2-(5-ethylpyridin-3-yl)-6-((3-methylbenzyl)amino)-9H-purin-9-yl)-3,4-dihydroxyl-N-(methyl-d3)tetrahydrofuran-2-formamide], in data set [1], the EC50 came out at 4 nM.

In turn, `[2H]C([2H])([2H])NC(=O)[C@H]1O[C@@H](n2cnc3c(NCc4cccc(C)c4)nc(-c4cncc(OC)c4)nc32)[C@H](O)[C@@H]1O` [compound 302] yielded an EC50 in data set [1] of 2.26 nM.
